These results are taken from article PMC10163056, “Vortioxetine hydrobromide inhibits the growth of gastric cancer cells in vivo and in vitro by targeting JAK2 and SRC” (Oncogenesis, 2023).

The structures appear in SMILES notation. Structures can show the parent of a compound that is named as a salt.

For one assay, the target named is SRC (Homo sapiens, UniProt P12931). In words: Kinase-Lumi luminescent kinase assay; also in vitro kinase assay with recombinant SRC and STAT3, bead pull-down of recombinant protein, CETSA in AGS and HGC27 cells. The assay is classed as biochemical.
The target of a further assay is JAK2 (Homo sapiens, UniProt O60674). Briefly: Kinase-Lumi luminescent kinase assay; also in vitro kinase assay with recombinant JAK2 and STAT3, bead pull-down of recombinant protein, CETSA in AGS and HGC27 cells. The assay is classed as biochemical.
Sequence of JAK2 (O60674 whole entry): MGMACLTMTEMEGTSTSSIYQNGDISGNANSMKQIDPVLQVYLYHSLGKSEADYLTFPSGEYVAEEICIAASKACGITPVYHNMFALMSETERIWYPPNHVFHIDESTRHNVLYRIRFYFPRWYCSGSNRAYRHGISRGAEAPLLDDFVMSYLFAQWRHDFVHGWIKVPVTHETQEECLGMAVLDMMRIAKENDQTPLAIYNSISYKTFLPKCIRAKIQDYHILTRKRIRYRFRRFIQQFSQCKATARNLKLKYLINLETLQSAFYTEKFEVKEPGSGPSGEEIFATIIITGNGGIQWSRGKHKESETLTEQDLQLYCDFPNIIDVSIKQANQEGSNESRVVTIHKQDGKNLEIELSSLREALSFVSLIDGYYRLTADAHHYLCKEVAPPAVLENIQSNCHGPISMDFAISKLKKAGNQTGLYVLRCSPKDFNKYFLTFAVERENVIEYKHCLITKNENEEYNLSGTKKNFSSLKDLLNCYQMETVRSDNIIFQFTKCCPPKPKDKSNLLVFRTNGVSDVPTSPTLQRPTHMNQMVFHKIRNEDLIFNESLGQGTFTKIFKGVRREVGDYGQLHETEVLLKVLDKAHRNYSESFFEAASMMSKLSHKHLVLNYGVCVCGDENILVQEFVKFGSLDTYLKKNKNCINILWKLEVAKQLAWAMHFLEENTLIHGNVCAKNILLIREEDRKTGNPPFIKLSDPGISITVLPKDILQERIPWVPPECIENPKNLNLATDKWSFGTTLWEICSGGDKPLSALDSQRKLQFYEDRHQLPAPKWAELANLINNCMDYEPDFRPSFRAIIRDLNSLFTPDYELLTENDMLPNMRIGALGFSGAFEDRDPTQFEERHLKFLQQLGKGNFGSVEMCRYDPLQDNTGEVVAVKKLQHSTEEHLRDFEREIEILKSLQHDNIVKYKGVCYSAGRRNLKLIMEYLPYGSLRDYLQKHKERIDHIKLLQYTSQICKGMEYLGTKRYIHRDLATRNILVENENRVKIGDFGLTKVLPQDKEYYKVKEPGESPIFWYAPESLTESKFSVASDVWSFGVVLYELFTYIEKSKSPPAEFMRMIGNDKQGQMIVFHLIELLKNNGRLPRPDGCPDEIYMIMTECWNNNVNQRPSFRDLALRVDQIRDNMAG

Sequence of SRC (P12931 2-536): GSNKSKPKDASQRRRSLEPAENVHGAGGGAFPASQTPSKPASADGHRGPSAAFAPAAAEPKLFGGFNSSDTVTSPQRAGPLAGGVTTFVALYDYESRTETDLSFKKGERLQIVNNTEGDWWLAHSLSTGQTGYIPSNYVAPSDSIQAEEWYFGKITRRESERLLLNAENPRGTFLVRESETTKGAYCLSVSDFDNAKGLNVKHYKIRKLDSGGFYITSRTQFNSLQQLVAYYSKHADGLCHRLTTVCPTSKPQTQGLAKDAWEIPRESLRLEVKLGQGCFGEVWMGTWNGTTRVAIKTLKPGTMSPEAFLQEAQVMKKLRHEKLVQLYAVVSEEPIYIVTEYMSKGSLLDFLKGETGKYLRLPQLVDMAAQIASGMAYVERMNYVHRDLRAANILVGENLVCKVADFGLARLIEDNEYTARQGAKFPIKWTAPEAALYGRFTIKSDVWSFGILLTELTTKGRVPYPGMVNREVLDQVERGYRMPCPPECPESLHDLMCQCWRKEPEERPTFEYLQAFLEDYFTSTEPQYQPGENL

Take `Cc1ccc(Sc2ccccc2N2CCNCC2)c(C)c1` [vortioxetine hydrobromide]: the figures for the IC50 on SRC and on JAK2 were 6.5 µM and 8.53 µM, respectively.

By IC50 is commonly meant the point on the concentration scale where inhibition reaches its midpoint.
